Source: US20080003127A1, “Non-Ferrous Metal Cover Gases” (Honeywell International Inc., priority 2006, published 2008)
Where two headings read alike, the source gives them in different places.

Experiments:
Boiling point = format: physicochemical; settings: for normal boiling point: trans- vs cis-isomer
Method: In addition, preferred cover gas compositions of the present invention comprise […] compounds wherein each compound present in more than an insubstantial amount has a boiling point of less than about 25° C., and even more preferably less than about 0° C. Cover gases that have boiling points close to or above room temperature (i.e. which are liquids at room temperature) typically require additional metering equipment to disperse the cover gas material in a controlled fashion onto the surface of the molten metal.

[1] = Toxicity, stated in words (no method given); settings: comparison in words, found by applicants
test subject (e.g. mice) [2] = assay: 4-hour LC-50 (concentration in air that kills 50% of test subjects, single exposure); format: in vivo; settings: single 4-hour exposure
Method: Preferably, fluoroolefins used in the present compositions have low or no toxicity. In this regard, it is preferred that fluoroolefin components that a present in the compositions in more than an insubstantial amount have a LC-50 value of at least about 100,000 ppm, and more preferably at least about 200,000 ppm. As used herein, the term “LC-50 value” means the concentration of the fluoroolefin in air that will kill 50% of test subject (e.g. mice) when administered as a single exposure (e.g. 4 hours). […] For comparison, C2F5C(O)CF(CF3)2 (a fluoroketone cover gas marketed by Minnesota Mining and Manufacturing Co. of St. Paul, Minn., under the tradename Novec™) has a 4-hour LC-50 of about 100,000.

[3] = Mg cover gas test: magnesium pieces in quartz tube, oven heated to about 700° C. under cover gas flow, visual inspection; settings: for relative performance as cover gas: at about 0.5% by volume; for performance as cover gas: concentrations at or above about 1.5% by volume
Method: A quartz tube having a well was equipped with a metered source of cover gas and a thermocouple which was placed in the well. The well was filled with about 0.2 to 0.3 g of solid magnesium pieces. The cover gas was a mixture of air (a carrier gas) and trans-HFO-1234ze. […]
The tube containing the magnesium was placed in an oven. A flow of cover gas through the tube and over the well containing the magnesium was then established at about 1 liter/minute. The oven was then heated to about 700° C. The flow of cover gas proceeded until a surface film was formed on the magnesium or the magnesium ignited.
After the test was complete, the magnesium was removed from the oven and visually inspected to determine the quality of the cover gas.
The experiments of Examples 1-5 were repeated, except that the cover gas contained […] SF6 or HFC-134a.

[4] = background statement in words; cited from earlier work
test subject (e.g. mice) [5] = settings: single 4-hour exposure; comparison compound; cited from earlier work
[6] = cardiac sensitization tests; comparison compound; cited from earlier work
[7] = 1.5 Vol. % of F-Source in Air, about 700° C.
[8] = 4.5 Vol. % of F-Source in Air, about 700° C.

Question: With `FC(F)(F)/C=C\Cl` [cis-HFCO-1233zd, cis-1,1,1-trifluoro-3-chloro-propene] as the compound, how does the “Boiling Point (° C.)” value (Boiling point; Table A) read?
Answer: The value was “+19 °C”.

Question: For `F/C=C(\F)C(F)(F)F` [cis-HFO-1225ye, cis-1,1,1,2,3-pentafluoropropene], which “relative toxicity between isomers” value [1] is on record?
Answer: The value was “relatively low degree of toxicity”.

Question: With `O=C=O` [CO2, carbon dioxide] as the compound, how does the “Boiling Point (° C.)” value (Boiling point) read?
Answer: Its value is −78 °C.

Question: Which “relative toxicity between isomers” value [1] does the source give for `FC(F)=CC(F)(F)F` [HFO-1225zc, CF3CH═CF2] here?
Answer: Its value is “much more toxic”.

Question: With `F/C=C(\F)C(F)F` [cis-HFO-1234ye] as the compound, how does the “Boiling Point (° C.)” value (Boiling point) read?
Answer: The value was “+2 °C”.

Question: With `FC=CC(F)(F)F` [HFO-1234ze, 1,1,1,3-tetrafluoropropene] as the compound, how does the “4-hour LC-50” value (test subject (e.g. mice) [2]) read?
Answer: Its value is “at least 100,000 ppm”.

Question: With `FCC(F)(F)F` [HFC-134a, 1,1,1,2-tetrafluoroethane] as the compound, how does the “Quality of Mg Protection” value ([3]; 0.10 Vol. % of F-Source in Air, about 700° C.) read?
Answer: The value was “most brown specks, protected in general”.

Question: What about the “Quality of Mg Protection” value ([3]; 0.60 Vol. % of F-Source in Air, about 700° C.) of the same compound?
Answer: The value was “white coating with no brown spots”.

Question: What about the “Quality of Mg Protection” value [3, 7] of the same compound?
Answer: Its value is “white coating; pieces not stuck together”.

Question: What about the “Quality of Mg Protection” value [3, 8] of the same compound?
Answer: The value was “white coating; pieces not stuck together”.

Question: What about the “relative performance as cover gas” value [3] of the same compound?
Answer: The value was “performing better than SF6”.

Question: What about the “performance as cover gas” value [3] of the same compound?
Answer: The value was “performed well”.

Question: What about the “Boiling Point (° C.)” value (Boiling point; Table A) of the same compound?
Answer: The value was −26 °C.

Question: For `O=S(=O)(F)F` [SO2F2, sulfuryl fluoride], which “Boiling Point (° C.)” value (Boiling point; Table A) is on record?
Answer: Its value is −55 °C.

Question: What about the “toxicity (known)” value [4] of the same compound?
Answer: The value was “toxic and/or hazardous”.

Question: With `FC(F)(F)/C=C/Cl` [trans-HFCO-1233zd, trans-1,1,1-trifluoro-3-chloro-propene] as the compound, how does the “Boiling Point (° C.)” value (Boiling point; Table A) read?
Answer: The value was “+19 °C”.

Question: Which results are given for `FN(F)F` [NF3, nitrogen trifluoride]?
Answer: Boiling Point (° C.) (Boiling point; Table A): −121 °C; toxicity (known) [4]: toxic and/or hazardous

Question: Which normal boiling point (Boiling point) does the source give for `FC=CC(F)(F)F` [cis-HFO-1234ze, 1,1,1,3-tetrafluoropropene] here?
Answer: The normal boiling point was 9 °C.

Question: Which “Boiling Point (° C.)” value (Boiling point; Table A) does the source give for `CC(F)F` [HFC-152a, difluoroethane] here?
Answer: Its value is −25 °C.

Question: With `FB(F)F` [boron trifluoride (BF3), boron trifluoride] as the compound, how does the “toxicity (known)” value [4] read?
Answer: Its value is “very toxic”.

Question: With methoxy-nonafluorobutane [HFE-7100] as the compound, how does the “Boiling Point (° C.)” value (Boiling point; Table A) read?
Answer: The value was 61 °C.

Question: For `C=C(F)C(F)(F)F` [HFO-1234yf, 1,1,1,2-tetrafluoropropene], which “Boiling Point (° C.)” value (Boiling point; Table A) is on record?
Answer: Its value is −30 °C.

Question: And the “4-hour LC-50” value (test subject (e.g. mice) [2])?
Answer: Its value is “at least 200,000 ppm”.

Question: With `C=C(Cl)C(F)(F)F` [HFCO-1233xf, 1,1,1-trifluoro-2-chloro-propene] as the compound, how does the “Boiling Point (° C.)” value (Boiling point; Table A) read?
Answer: The value was “+12 °C”.

Question: Which “Boiling Point (° C.)” value (Boiling point; Table A) does the source give for `O=C(C(F)(F)C(F)(F)F)C(F)(C(F)(F)F)C(F)(F)F` [C2F5C(O)CF(CF3)2] here?
Answer: Its value is 49 °C.

Question: And the “4-hour LC-50” value (test subject (e.g. mice) [5])?
Answer: Its value is “about 100,000 ppm”.

Question: What about the NOAEL [6] of the same compound?
Answer: Its NOAEL is 10 vol. %.

Question: Which “Quality of Mg Protection” value ([3]; 0.09 Vol. % of F-Source in Air, about 700° C.) does the source give for `F/C=C/C(F)(F)F` [trans-HFO-1234ze, trans-1,3,3,3-tetrafluoropropene] here?
Answer: The value was “a few brown specks, well protected in general”.

Question: And the “Quality of Mg Protection” value ([3]; 0.26 Vol. % of F-Source in Air, about 700° C.)?
Answer: Its value is “white with dark spots, no pieces stuck together”.

Question: And the “Quality of Mg Protection” value ([3]; 0.46 Vol. % of F-Source in Air, about 700° C.)?
Answer: Its value is “white coating with no brown spots”.

Question: And the “Quality of Mg Protection” value [3, 7]?
Answer: Its value is “white coating; pieces not stuck together”.

Question: What about the “Quality of Mg Protection” value [3, 8] of the same compound?
Answer: Its value is “white coating; pieces not stuck together”.

Question: What about the “protection of magnesium (visual inspection)” value (“protection of magnesium” for short) ([3]; Example 1: about 4.5% by volume in air, about 700° C.) of the same compound?
Answer: The value was “well protected”.

Question: And the “protection of magnesium” value ([3]; Example 2: about 1.5% by volume in air)?
Answer: Its value is “well protected”.

Question: What about the “protection of magnesium” value ([3]; Example 3: about 0.5% by volume in air) of the same compound?
Answer: Its value is “well protected”.

Question: And the “protection of magnesium” value ([3]; Example 4: about 0.2% by volume in air)?
Answer: Its value is “well protected”.

Question: And the “protection of magnesium” value ([3]; Example 5: about 0.1% by volume in air)?
Answer: The value was “protected in general”.

Question: And the “relative performance as cover gas” value [3]?
Answer: The value was “performing better than HFC-134a”.

Question: And the “performance as cover gas” value [3]?
Answer: The value was “performed well”.

Question: What about the “Boiling Point (° C.)” value (Boiling point; Table A) of the same compound?
Answer: The value was −18.4 °C.

Question: What about the normal boiling point (Boiling point) of the same compound?
Answer: The normal boiling point was −18.4 °C.

Question: What about the “relative toxicity between isomers” value [1] of the same compound?
Answer: The value was “less toxic than the cis-isomer”.

Question: For `FS(F)(F)(F)(F)F` [SF6, sulfurhexafluoride], which “Quality of Mg Protection” value ([3]; 0.11 Vol. % of F-Source in Air, about 700° C.) is on record?
Answer: Its value is “failure; Mg ignited”.

Question: And the “Quality of Mg Protection” value ([3]; 0.20 Vol. % of F-Source in Air, about 700° C.)?
Answer: The value was “several brownish regions, very little luster,”.

Question: What about the “Quality of Mg Protection” value ([3]; 0.43 Vol. % of F-Source in Air, about 700° C.) of the same compound?
Answer: The value was “coating less white; brownish regions;”.

Question: And the “Quality of Mg Protection” value [3, 7]?
Answer: The value was “white coating; pieces not stuck together”.

Question: And the “Quality of Mg Protection” value [3, 8]?
Answer: The value was “white coating; pieces not stuck together”.

Question: What about the “performance as cover gas” value [3] of the same compound?
Answer: Its value is “performed well”.

Question: What about the “Boiling Point (° C.)” value (Boiling point; Table A) of the same compound?
Answer: Its value is −82 °C.

Question: And the “toxicity (known)” value [4]?
Answer: Its value is “non-toxic”.

Question: With `O=NF` [nitrosyl fluoride] as the compound, how does the “toxicity (known)” value [4] read?
Answer: The value was “toxic and/or hazardous”.

Question: For `FC(F)(F)C(F)(F)F` [C2F6], which “Boiling Point (° C.)” value (Boiling point; Table A) is on record?
Answer: Its value is −78 °C.
